Laboratory results as given in patent US20080194652A1 (priority 2004, published 2008).
Values belong to the compound of their own block, whether it stands above or below them.

Assays:
P. falciparum strain W2 = test: 72 hour microplate growth assay, SybrGreen I-based fluorescence readout, drug-resistance reversal; format: cell-based, Plasmodium falciparum; settings: for decrease of CQ EC50 (chloroquine resistance reversal): with chloroquine, equimolar comparison of (+) and (+/−) CP; for resistance reversal activity inferred from comparison of (+/−) with (+): indirect assessment, chloroquine, chloroquine and quinine
Description: (§1) Results were determined by SybrGreen I-based fluorescence assay.
(§2) This indirect assessment was required because only the antihistaminically-active (+) and (+/−) forms are available.

P. falciparum strain 7G8 = test: as above; format: cell-based, Plasmodium falciparum; settings: for decrease of CQ EC50 (chloroquine resistance reversal): with chloroquine, equimolar comparison of (+) and (+/−) CP; for resistance reversal activity inferred from comparison of (+/−) with (+): indirect assessment, chloroquine, chloroquine and quinine
Description: as §1, §2

resistant P. falciparum = settings: literature; cited from earlier work
[1] = tested on: CQ-resistant P. falciparum infection; settings: cited from earlier work
rodent malaria = settings: in vivo; cited from earlier work
[2] = tested on: cardiac electrophysiology; settings: cited from earlier work
Plasmodium falciparum = test: in vitro drug-resistance reversal, strain not stated; format: cell-based
[3] = in vivo; cited from earlier work
[4] = listed as (+/−)chlorpheniramine
[5] = with quinine, equimolar comparison

decrease of CQ EC50 (chloroquine resistance reversal) (P. falciparum strain W2): at least equivalent to (+) CP | decrease of CQ EC50 (chloroquine resistance reversal) (P. falciparum strain 7G8): at least equivalent to (+) CP
SMILES: CN(C)CCC(c1ccc(Cl)cc1)c1ccccn1 (racemic) [(+/−) CP, chlorpheniramine]
decrease of CQ EC50 (chloroquine resistance reversal) (P. falciparum strain W2; [4]): equivalent or slightly superior to the (+) isomer | quinine resistance reversal (P. falciparum strain W2; [5]): equivalent or slightly superior to the (+) isomer | decrease of CQ EC50 (chloroquine resistance reversal) (P. falciparum strain 7G8; [4]): equivalent or slightly superior to the (+) isomer | quinine resistance reversal (P. falciparum strain 7G8; [5]): equivalent or slightly superior to the (+) isomer | chloroquine resistance reversal in vitro (resistant P. falciparum): demonstrated effectiveness | drowsiness in clinical trials ([1]; in vivo): drowsiness was consistently found | effectiveness in rodent malaria models (rodent malaria): demonstrated effectiveness

SMILES: CN(C)CCC(c1ccc(Cl)cc1)c1ccccn1 (single isomer, unassigned; (-)) [(−) CP, (−) chlorpheniramine]
resistance reversal activity inferred from comparison of (+/−) with (+) (P. falciparum strain W2): active | resistance reversal activity inferred from comparison of (+/−) with (+) (P. falciparum strain W2; listed as (−)chlorpheniramine): must be active | resistance reversal activity inferred from comparison of (+/−) with (+) (P. falciparum strain 7G8): active | resistance reversal activity inferred from comparison of (+/−) with (+) (P. falciparum strain 7G8; listed as (−)chlorpheniramine): must be active | change of cardiac electrophysiology [2]: only at in vitro concentrations far above those needed to restore chloroquine sensitivity | chloroquine resistance reversal (Plasmodium falciparum; inferred for the (−) isomer): reverses | quinine resistance reversal (Plasmodium falciparum; inferred for the (−) isomer): reverses

decrease of CQ EC50 (chloroquine resistance reversal) (P. falciparum strain W2): active | decrease of CQ EC50 (chloroquine resistance reversal) (P. falciparum strain 7G8): active
SMILES: CN(C)CC[C@@H](c1ccc(Cl)cc1)c1ccccn1 [(+) CP, (+) chlorpheniramine]

SMILES: CN(C)CCC(c1ccc(Br)cc1)c1ccccn1 (stereo not shown) [brompheniramine]
chloroquine resistance reversal (Plasmodium falciparum; with chloroquine, in vitro): chloroquine resistance reversal agents

SMILES: CNCCCN1c2ccccc2CCc2ccccc21 [desipramine]
chloroquine resistance reversal in vitro (resistant P. falciparum): reversed chloroquine resistance | chloroquine resistance reversal in primate animal trial [3]: reversed chloroquine resistance | clinical outcome / cure rates ([1]; co-administered with chloroquine, clinical trials): ineffective

SMILES: CN(C)CCC(c1ccc(F)cc1)c1ccccn1 (stereo not shown) [flupheniramine]
chloroquine resistance reversal (Plasmodium falciparum; with chloroquine, in vitro): chloroquine resistance reversal agents

SMILES: CN(C)CCC(c1ccccc1)c1ccccn1 (stereo not shown) [pheniramine]
chloroquine resistance reversal (Plasmodium falciparum; with chloroquine, in vitro): chloroquine resistance reversal agents

SMILES: COc1ccc(CCN(C)CCCC(C#N)(c2ccc(OC)c(OC)c2)C(C)C)cc1OC (stereo not shown) [verapamil]
chloroquine resistance reversal in vitro (resistant P. falciparum): partially restored chloroquine sensitivity
